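How tested: cells in 96-well plates exposed to compound for 48 hours at five concentrations. GI50 is the concentration that inhibits growth by half.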 The source made the active and inactive calls. No stated cut-off is given here; in the data, active = GI50 up to about 1.1 µM and inactive = higher.
What was measured:
Experiment in all cases: NCI anticancer screen, dose series, 48 h
[1] = system: TK-10
[2] = system: SN12C
[3] = system: BT-549
[4] = system: PC-3
[5] = system: UACC-62
[6] = system: EKVX
[7] = system: NCI-H460
[8] = system: SNB-19
[9] = system: DU-145
[10] = system: MDA-N
[11] = system: LOX IMVI
[12] = system: OVCAR-8
[13] = system: M14
[14] = system: HCT-116
[15] = system: RPMI-8226
[16] = system: CCRF-CEM
[17] = system: K562
[18] = system: MCF7
[19] = system: OVCAR-4
[20] = system: HL-60

Measured: GI50

Cc1cnc2c(c1)C(=O)N(c1ccc(Oc3ccccc3)cc1)S2(=O)=O
inactive: [1] > 100 µM | [2] > 100 µM | [3] > 100 µM | [4] > 100 µM | [5] > 100 µM | [6] > 100 µM | [7] > 100 µM | [8] > 100 µM | [9] > 100 µM | [10] > 100 µM | [11] > 100 µM | [12] > 100 µM | [13] > 100 µM | [14] > 100 µM | [15] > 100 µM | [16] > 100 µM | [17] > 100 µM | [18] > 100 µM | [19] 83.8 µM | [20] > 100 µM

COc1c(Cl)c(=O)oc2ccc(Cl)cc12
inactive: [1] > 100 µM | [2] > 100 µM | [3] > 100 µM | [4] > 100 µM | [5] > 100 µM | [6] 81.7 µM | [7] > 100 µM | [8] > 100 µM | [9] > 100 µM | [10] > 100 µM | [11] > 100 µM | [12] > 100 µM | [13] > 100 µM | [14] > 100 µM | [15] > 100 µM | [16] > 100 µM | [17] > 100 µM | [18] > 100 µM | [19] > 100 µM | [20] > 100 µM

CSc1c(C#N)c(O)n(-c2ccc(Cl)cc2)c(=O)c1C(C)=O
inactive: [1] 42.6 µM | [2] > 100 µM | [3] 90.6 µM | [4] > 100 µM | [5] 69.3 µM | [6] > 100 µM | [7] > 100 µM | [8] 88.5 µM | [9] 70.6 µM | [10] 55.5 µM | [11] 34.4 µM | [12] 42.4 µM | [13] 89.9 µM | [14] 38.1 µM | [15] 26 µM | [16] 17 µM | [17] 25.5 µM | [18] 52.4 µM | [19] 37.5 µM | [20] 18.4 µM

CC(=O)O[C@H]1CCn2c3c(c(C)c21)C(=O)C(N1CC1)=C(C)C3=O
inactive: [1] > 10 µM | [2] 7.43 µM | [3] > 10 µM | [4] > 10 µM | [5] 9.04 µM | [6] > 10 µM | [7] 3.52 µM | [8] > 10 µM | [9] 4.21 µM | [10] > 10 µM | [11] > 10 µM | [12] > 10 µM | [13] > 10 µM | [14] > 10 µM | [15] > 10 µM | [16] > 10 µM | [17] > 10 µM | [18] 5.51 µM | [19] > 10 µM | [20] > 10 µM
